The structures appear in SMILES notation. pEC50: −log10 of the molar value. Where only a bound is given, the exact number is not on record here.

The record followed here is US9409884B2 (Rigel Pharmaceuticals, Inc., priority 2012, dated 2016).

One experiment concerns the target AMPK. In words: AMPK activation, enzyme-linked immunosorbent assay. Type of experiment: biochemical. The following applies: Table 8, compounds of Table 1. On the procedure: Compounds of Table 1 were assayed for their ability to activate AMPK using an enzyme-linked immunosorbent assay.
Compounds of Table 2 were assayed for their ability to activate AMPK using an enzyme-linked immunosorbent assay.
Compounds of Table 3 were assayed for their ability to activate AMPK using an enzyme-linked immunosorbent assay.
Compounds of Table 4 were assayed for their ability to activate AMPK using an enzyme-linked immunosorbent assay.
Compounds of Table 5 were assayed for their ability to activate AMPK using an enzyme-linked immunosorbent assay.
Compounds of Table 6 were assayed for their ability to activate AMPK using an enzyme-linked immunosorbent assay.
Compounds of Table 7 were assayed for their ability to activate AMPK using an enzyme-linked immunosorbent assay.
`N#Cc1ccc(CN2CCC(NC(=O)c3cc4cc(O[C@@H]5CCN(Cc6ccc(Oc7ccc(F)cc7)cc6)C[C@H]5F)ccc4o3)CC2)cc1` [Compound 1-165, N-(1-(4-cyanobenzyl)piperidin-4-yl)-5-((3,4-trans)-3-fluoro-1-(4-(4-fluorophenoxy)benzyl)piperidin-4-yloxy)benzofuran-2-carboxamide] gave a pEC50 of over 7.00.

In turn, `N#Cc1ccc(CN2CCC(NC(=O)c3cc4cc(O[C@@H]5CCN(Cc6ccc(-n7cccn7)cc6)C[C@H]5F)ccc4o3)CC2)cc1` [Compound 1-164, 5-((3,4-trans)-1-(4-(1H-pyrazol-1-yl)benzyl)-3-fluoropiperidin-4-yloxy)-N-(1-(4-cyanobenzyl)piperidin-4-yl)benzofuran-2-carboxamide] had a pEC50 of 6.30 to 7.00. As to `O=S(=O)(NC1CCN(Cc2ccncc2)CC1)c1ccc(OC2CCN(c3ccc(C(F)(F)F)cc3)CC2)nc1` [Compound 1-51, N-(1-(pyridin-4-ylmethyl)piperidin-4-yl)-6-(1-(4-(trifluoromethyl)phenyl)piperidin-4-yloxy)pyridine-3-sulfonamide], the pEC50 is 6.30 to 7.00.

`O=C(NC1CCN(Cc2ccncc2)CC1)c1cc(OC2CCN(c3ccc(C(F)(F)F)cc3)CC2)ccn1` [Compound 1-13, N-(1-(pyridin-4-ylmethyl)piperidin-4-yl)-4-(1-(4-(trifluoromethyl)phenyl)piperidin-4-yloxy)picolinamide] had a pEC50 of 6.30 to 7.00. Same read-out and setting: for `N#Cc1ccc(CN2CCC(NS(=O)(=O)c3ccc(OC4CCN(c5ccc(C(F)(F)F)cc5)CC4)nc3)CC2)cc1` [Compound 1-56, N-(1-(4-cyanobenzyl)piperidin-4-yl)-6-(1-(4-(trifluoromethyl)phenyl)piperidin-4-yloxy)pyridine-3-sulfonamide] the value was 5.00 to 5.30. On the same count and under the same terms, then `N#Cc1ccc(N2CCC(Oc3ccc(C(=O)NC4CCN(Cc5ccncc5)CC4)nc3)CC2)cc1` [Compound 1-1, 5-(1-(4-cyanophenyl)piperidin-4-yloxy)-N-(1-(pyridin-4-ylmethyl)piperidin-4-yl)picolinamide], with 6.30 to 7.00; and `CC(C)(C)OC(=O)N1CCC(NC(=O)c2cc3cc(OC4CCN(c5ccc(C(F)(F)F)cc5)CC4)ccc3o2)CC1` [Compound 1-85, tert-butyl 4-(5-(1-(4-(trifluoromethyl)phenyl)piperidin-4-yloxy)benzofuran-2-carboxamido) piperidine-1-carboxylate], with 6.00 to 6.30. Compound `Cc1c(C(=O)NC2CCN(Cc3cccnc3)CC2)oc2cc(OC3CCN(c4ccc(C(F)(F)F)cc4)CC3)ccc12` [Compound 1-69, 3-methyl-N-(1-(pyridin-3-ylmethyl)piperidin-4-yl)-6-(1-(4-(trifluoromethyl)phenyl)piperidin-4-yloxy)benzofuran-2-carboxamide] showed a pEC50 of over 7.00.

In turn, `O=C(NC1CCN(Cc2ccncc2)CC1)c1cc2ccc(OC3CCN(c4ccc(OC(F)(F)F)cc4)CC3)cc2o1` [Compound 1-88, N-(1-(pyridin-4-ylmethyl)piperidin-4-yl)-6-(1-(4-(trifluoromethoxy)phenyl)piperidin-4-yloxy)benzofuran-2-carboxamide] showed a negative-log EC50 (pEC50) of over 7.00. On the same count and under the same terms, for `N#Cc1ccc(CN2CC[C@@H](NC(=O)c3ccc(OC4CCN(c5ccc(C(F)(F)F)cc5)CC4)cn3)C2)cc1` [Compound 1-33, (R)-N-(1-(4-cyanobenzyl)pyrrolidin-3-yl)-5-(1-(4-(trifluoromethyl)phenyl)piperidin-4-yloxy) picolinamide] the value was 6.00 to 6.30.

Staying with this experiment, now noted: Table 9, compounds of Table 2.
For `NC(=O)c1ccc(CN2CCc3[nH]c4ccc(C(=O)NC5CCN(Cc6ccc(C(F)(F)F)cc6)CC5)cc4c3C2)cc1` [Compound 2-47, 2-(4-carbamoylbenzyl)-N-(1-(4-(trifluoromethyl)benzyl)piperidin-4-yl)-2,3,4,5-tetrahydro-1H-pyrido[4,3-b]indole-8-carboxamide], the pEC50 was 4.30 to 5.00.

Staying with this experiment, now noted: Table 10, compounds of Table 3.
For `CC(C)(C)OC(=O)N1CCC(NC(=O)c2nc3ccc(OC4CCN(c5ccc(C(F)(F)F)cc5)CC4)cc3s2)CC1` [Compound 3-14, tert-butyl 4-(6-(1-(4-(trifluoromethyl)phenyl)piperidin-4-yloxy)benzo[d]thiazole-2-carboxamido)piperidine-1-carboxylate], the pEC50 was 5.00 to 6.00.

Still in this experiment, the particulars now being: Table 12, compounds of Table 5.
Compound `N#Cc1ccc(CN2CCC(NC(=O)c3cccc(OC4CCN(Cc5ccc(C(F)(F)F)cc5)CC4)c3)CC2)cc1` [Compound 5-125, N-(1-(4-cyanobenzyl)piperidin-4-yl)-3-(1-(4-(trifluoromethyl)benzyl)piperidin-4-yloxy)benzamide] gave a pEC50 of over 6.00. On the same count and under the same terms, for `O=C(NC1CCN(Cc2ccccc2)CC1)c1ccc(OC2CCN(c3ccc(C(F)(F)F)cc3)CC2)cc1Cl` [Compound 5-47, N-(1-benzylpiperidin-4-yl)-2-chloro-4-(1-(4-(trifluoromethyl)phenyl)piperidin-4-yloxy)benzamide] the value was over 6.00; for `COc1ccc(CN2CCC(NC(=O)c3cccc(OC4CCN(Cc5ccc(OC)cc5)CC4)c3)CC2)cc1` [Compound 5-107, N-(1-(4-methoxybenzyl)piperidin-4-yl)-3-(1-(4-methoxybenzyl)piperidin-4-yloxy)benzamide], over 6.00; for `O=C(NC1CCN(C(=O)c2ccc(F)cc2)CC1)c1ccc(OC2CCN(c3ccc(C(F)(F)F)cc3)CC2)c(F)c1` [Compound 5-31, 3-fluoro-N-(1-(4-fluorobenzoyl)piperidin-4-yl)-4-(1-(4-(trifluoromethyl)phenyl)piperidin-4-yloxy)benzamide], over 6.00.

The same experiment, now with this note: Table 13, compounds of Table 6.
The compound `CS(=O)(=O)c1ccc(CN2CCN(C(=O)c3ccc4oc(C(=O)NC5CCN(Cc6ccc(C#N)cc6)CC5)cc4c3)CC2)cc1OC(F)(F)F` [Compound 6-111, N-(1-(4-cyanobenzyl)piperidin-4-yl)-5-(4-(4-(methylsulfonyl)-3-(trifluoromethoxy)benzyl)piperazine-1-carbonyl) benzofuran-2-carboxamide] had a pEC50 of 6.00 to 7.00. Same read-out and setting: for `CS(=O)(=O)c1ccc(CN2CCN(c3ccc4oc(C(=O)NC5CCN(Cc6ccc(C#N)cc6)CC5)cc4c3)CC2)cc1` [Compound 6-10, N-(1-(4-cyanobenzyl)piperidin-4-yl)-5-(4-(4-(methylsulfonyl)benzyl)piperazin-1-yl)benzofuran-2-carboxamide] the value was over 7.00; for `COc1ccc(CN2CCC(NC(=O)c3cc4cc(C(=O)N5CCN(Cc6cccc(S(C)(=O)=O)c6)CC5)ccc4n3C)CC2)cc1F` [Compound 6-142, N-(1-(3-fluoro-4-methoxybenzyl)piperidin-4-yl)-1-methyl-5-(4-(3-(methylsulfonyl)benzyl)piperazine-1-carbonyl)-1H-indole-2-carboxamide], over 7.00; for `COc1ccc(CN2CCC(NC(=O)c3cc4cc(NC(=O)c5ccc(Oc6ccc(F)cc6)cc5)ccc4o3)CC2)cc1` [Compound 6-23, 5-(4-(4-fluorophenoxy)benzamido)-N-(1-(4-methoxybenzyl)piperidin-4-yl)benzofuran-2-carboxamide], 6.00 to 7.00.

`N#Cc1ccc(CN2CCC(NC(=O)c3cc4cc(C(=O)NC5CCN(c6ccc(C#N)cc6)CC5)ccc4o3)CC2)cc1` [Compound 6-90, N2-(1-(4-cyanobenzyl)piperidin-4-yl)-N5-(1-(4-cyanophenyl)piperidin-4-yl)benzofuran-2,5-dicarboxamide] had a pEC50 of over 7.00. On the same count and under the same terms, then `COc1ccc(CN2CCC(NC(=O)c3cc4cc(C(=O)N5CCN(Cc6ccc(S(C)(=O)=O)c(Cl)c6)CC5)ccc4o3)CC2)cc1F` [Compound 6-133, 5-(4-(3-chloro-4-(methylsulfonyl)benzyl)piperazine-1-carbonyl)-N-(1-(3-fluoro-4-methoxybenzyl)piperidin-4-yl)benzofuran-2-carboxamide], with over 7.00; and `O=C(Nc1ccc(Oc2ccccc2)cc1)c1cc2cc(C(=O)N3CCN(Cc4ccc(F)cc4)CC3)ccc2o1` [Compound 6-12, 5-(4-(4-fluorobenzyl)piperazine-l-carbonyl)-N-(4-phenoxyphenyl)benzofuran-2-carboxamide], with over 7.00. In turn, `N#Cc1ccc(CN2CCC(NC(=O)c3cc4cc(NC(=O)c5cnn(Cc6ccc(C(F)(F)F)cc6)c5)ccc4o3)CC2)cc1` [Compound 6-72, N-(2-(1-(4-cyanobenzyl)piperidin-4-ylcarbamoyl)benzofuran-5-yl)-1-(4-(trifluoromethyl)benzyl)-1H-pyrazole-4-carboxamide] showed a pEC50 of 5.00 to 6.00. On the same count and under the same terms, for `CCNS(=O)(=O)c1ccc(CN2CCN(C(=O)c3ccc4oc(C(=O)NC5CCN(Cc6ccc(OC)c(F)c6)CC5)cc4c3)CC2)cc1` [Compound 6-161, 5-(4-(4-(N-ethylsulfamoyl)benzyl)piperazine-1-carbonyl)-N-(1-(3-fluoro-4-methoxybenzyl)piperidin-4-yl)benzofuran-2-carboxamide] the value was over 7.00.

Staying with this experiment, now noted: Table 14, compounds of Table 7.
In the case of `O=C(NC1CCN(Cc2ccc(OC(F)(F)F)cc2)C[C@H]1F)c1ccc(C(=O)N2CCC(C(=O)c3ccc(N4CCOCC4)cc3)CC2)nc1` (stereo partly drawn) [Compound 7-53, N-((3,4-trans)-3-fluoro-1-(4-(trifluoromethoxy)benzyl)piperidin-4-yl)-6-(4-(4-morpholinobenzoyl)piperidine-1-carbonyl)nicotinamide], the pEC50 was over 6.00. Turning to `N#Cc1ccc(OC2CCN(C(=O)c3ccc(C(=O)NC4CCN(Cc5ccc(OC(F)(F)F)cc5)CC4F)cn3)CC2)cc1` (stereo not drawn) [Compound 7-62, 6-(4-(4-cyanophenoxy)piperidine-1-carbonyl)-N-((3,4-trans)-3-fluoro-1-(4-(trifluoromethoxy)benzyl)piperidin-4-yl)nicotinamide], the pEC50 was over 6.00.

In the case of `N#Cc1ccc(CN2CCC(NC(=O)c3ccc(C(=O)N4CCC(C(=O)c5ccc(N6CCOCC6)cc5)CC4)nc3)[C@H](F)C2)cc1` (stereo partly drawn) [Compound 7-75, N-((3,4-trans)-1-(4-cyanobenzyl)-3-fluoropiperidin-4-yl)-6-(4-(4-morpholinobenzoyl)piperidine-l-carbonyl)nicotinamide], the pEC50 was over 6.00.
